As a reminder, the IC50 is the concentration needed to halve the response being measured. Broadly, the inhibition is the percentage by which the read-out fell short of the control.

From ChEMBL document CHEMBL5360520, “Catalytic covalent inhibition of cyclooxygenase-1 by a biomimetic acyltransferase” (Bioorg Med Chem, 2022) come the findings set out here.

Each structure is given as a SMILES string. Calls of active or inactive are those of the source. No cut-off for these calls is given here.

Data set [1] addresses T1, Prostaglandin G/H synthase 1 (Ovis aries, UniProt P05979).
T1 sequence (P05979 whole entry): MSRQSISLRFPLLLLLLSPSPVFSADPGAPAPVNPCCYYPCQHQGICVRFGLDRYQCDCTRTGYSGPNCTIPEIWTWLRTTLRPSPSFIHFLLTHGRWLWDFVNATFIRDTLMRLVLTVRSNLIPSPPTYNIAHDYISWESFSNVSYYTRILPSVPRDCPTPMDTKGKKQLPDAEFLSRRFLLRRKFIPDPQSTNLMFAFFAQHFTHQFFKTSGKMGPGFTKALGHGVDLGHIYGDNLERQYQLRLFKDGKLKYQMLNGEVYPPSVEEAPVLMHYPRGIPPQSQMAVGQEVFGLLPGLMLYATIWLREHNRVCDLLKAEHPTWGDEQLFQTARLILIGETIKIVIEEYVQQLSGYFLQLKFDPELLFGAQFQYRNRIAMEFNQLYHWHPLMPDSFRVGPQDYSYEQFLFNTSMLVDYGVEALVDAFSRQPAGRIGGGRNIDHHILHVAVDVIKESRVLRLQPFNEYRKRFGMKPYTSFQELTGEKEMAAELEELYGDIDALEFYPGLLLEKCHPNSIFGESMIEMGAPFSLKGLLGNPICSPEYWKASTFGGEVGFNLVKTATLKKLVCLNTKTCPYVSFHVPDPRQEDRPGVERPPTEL
The experiment in a line: Covalent inhibition of recombinant ovine COX-1 using arachidonic acid as substrate assessed as reduction in PGE2 production preincubated with compound for 1 hrs followed by substrate addition and measured after 10 mins by LC-MS/MS analysis.

In data set [2] the target is T1, Prostaglandin G/H synthase 1. Nature of the data set: Covalent inhibition of recombinant ovine COX-1 using arachidonic acid as substrate assessed as reduction in PGE2 production preincubated with compound for 5 hrs followed by substrate addition and measured after 10 mins by LC-MS/MS analysis.
The target is the same in data set [3]. Nature of the data set: Non-covalent binding affinity to recombinant ovine COX1 using arachidonic acid as substrate assessed as binding constant preincubated with compound for 10 to 40 mins followed by substrate addition and measured after 10 mins by LC-MS/MS analysis.
Data set [4] has as its target T2, Prostaglandin G/H synthase 1 (Ovis aries) (UniProt P05979).
T2 sequence (whole entry): T1 sequence (P05979 whole entry)
Nature of the data set: Covalent inhibition of recombinant ovine COX1 using arachidonic acid as substrate assessed as inhibition rate preincubated with compound for 10 to 40 mins followed by substrate addition and measured after 10 mins by LC-MS/MS analysis. Conditions: time 20-50 min.

Data set [5] deals with T2, Prostaglandin G/H synthase 1 (Ovis aries). The experiment in a line: Inhibition of recombinant ovine COX1 using arachidonic acid as substrate assessed as Kinact/Ki ratio preincubated with compound for 10 to 40 mins followed by substrate addition and measured after 10 mins by LC-MS/MS analysis. The conditions noted are these: time 20-50 min.
The target is the same in data set [6]. Nature of the data set: Covalent inhibition of recombinant ovine COX1 using arachidonic acid as substrate assessed as acetylation at Ser530 residues preincubated with compound followed by substrate addition and measured after 10 mins by LC-MS/MS analysis.
In data set [7] the target is Prostaglandin G/H synthase 1 (Homo sapiens) (UniProt P23219). Nature of the data set: Covalent inhibition of COX1 in LPS-treated human A549 cells using arachidonic acid as substrate assessed as reduction in PGE2 production at 40 uM measured every 24 hrs by LC-MS/MS analysis. Conditions: time <= 48.0 hrs, TDE = time-dependent effect.
The target is the same in data set [8]. Nature of the data set: Covalent inhibition of COX1 in LPS-treated human A549 cells using arachidonic acid as substrate assessed as reduction in PGE2 production at 40 uM preincubated with compound for 12 hrs followed by washout and measured after 20 mins of substrate addition by LC-MS/MS analysis.
Data set [9] has as its target T2, Prostaglandin G/H synthase 1 (Ovis aries). The experiment in a line: Covalent inhibition of recombinant ovine COX1 using arachidonic acid as substrate assessed as reduction in PGE2 production at 40 uM preincubated with compound for […] followed by substrate addition and measured after 10 mins in the presence of AcSNAC by LC-MS/MS analysis. Conditions: time 370.0 min.

Data set [10] shares this target. Nature of the data set: Covalent inhibition of recombinant ovine COX1 using arachidonic acid as substrate assessed as reduction in PGE2 production preincubated with compound followed by substrate addition and measured after 10 mins by LC-MS/MS analysis relative to control.
For data set [11] the target is unchanged. The experiment in a line: Covalent inhibition of recombinant ovine COX1 using arachidonic acid as substrate assessed as residual activity preincubated with compound for 6 hrs followed by substrate addition for 10 mins and measured after 8 hrs of dialysis by LC-MS/MS analysis relative to control. Conditions: time 370.0 min.
The target is the same in data set [12]. Nature of the data set: Covalent inhibition of recombinant ovine COX-1 using arachidonic acid as substrate assessed as reduction in PGE2 production preincubated with compound followed by substrate addition and measured after 10 mins by LC-MS/MS analysis. Conditions: time 70-310 min, TDE = time-dependent effect.
Data set [13] shares this target. Nature of the data set: Covalent inhibition of recombinant ovine COX1 using arachidonic acid as substrate assessed as reduction in PGE2 production preincubated with compound for 6 hrs followed by substrate addition for 10 mins and measured after 8 hrs of dialysis by LC-MS/MS analysis. Conditions: time 370.0 min.
Data set [14] deals with A549. Nature of the data set: Cytotoxicity against human A549 cells assessed as reduction in cell viability at 15 uM by MTT assay. The data set is classed as toxicity, cell-based. The conditions noted are these: a549, 15 µM. (Tetrazolium assays rely on reduction of a dye to a coloured formazan, in cell work by metabolically active cells.)
Data set [15] has as its target T2, Prostaglandin G/H synthase 1 (Ovis aries). The experiment in a line: Covalent inhibition of recombinant ovine COX1 using arachidonic acid as substrate assessed as reduction in PGE2 production at 10 uM preincubated with compound for 16 hrs followed by substrate addition for 10 mins in the presence of AcSNAC and measured after 16 hrs of dialysis by LC-MS/MS analysis. The conditions noted are these: time 970.0 min.

Data set [16] has as its target Prostaglandin G/H synthase 1 (Homo sapiens) (UniProt P23219). Nature of the data set: Covalent inhibition of COX1 in LPS-treated human A549 cells using arachidonic acid as substrate assessed as reduction in PGE2 production at 15 uM preincubated with compound for 24 hrs followed by washout and measured after 20 mins of substrate addition by LC-MS/MS analysis.

For the compound `CCCCCCNC(=O)c1ccccc1SC(C)=O`, the IC50 came to 50 µM in [1] and 10 µM in data set [2]. Also, the Ki in data set [3] was 33.9 µM. Also, in data set [4], the Kinact is 2.1 10^-2/min. Further, the Ratio in data set [5] is 0.65 10^-3/min/µM. In addition, the inhibition result in [6] and in data set [8] was “Active” throughout. Moreover, in [7], the inhibition entry was “Tde”.
Consider `CCCCCCNC(=O)c1ccccc1S`, for which the inhibition entry in data set [9] and in [8] was “Active” in each case.
As for `CCCCC#CCNC(=O)c1ccccc1SC`, the inhibition in data set [10] came to 97%. The Activity in [11] was 83%.
For `CCCCC#CCNC(=O)c1ccccc1SC(C)=O`, the inhibition entry in [12] is “Tde”. For the same compound, the Ki in data set [3] came out at 8.9 µM. Further, the Kinact in data set [4] is 2.2 10^-2/min. Further, in data set [5], the Ratio is 2.58 10^-3/min/µM. Also, the inhibition result in [13] and in [6] was “Active” throughout. Besides, the Activity result in data set [14] is recorded as “Non-Toxic”.
Take `CC(=O)Oc1ccccc1C(=O)O` [ASPIRIN]: in data set [12], the inhibition result is “Tde”. For the same compound, the Activity result in data set [14] is given as “Non-Toxic”.
For `CCCCC#CCNC(=O)c1ccccc1S`, in data set [14], the Activity result is given as “Non-Toxic”. Also, in [15], the inhibition entry is “Active”. Moreover, in [16], the inhibition turned out to be 60%.
With `C#CCNC(=O)c1ccccc1SC(C)=O`, in data set [12], the inhibition entry was “Tde”. Further, the Ki in [3] turned out to be 15.2 µM. For the same compound, the Kinact in data set [4] was 2.5 10^-2/min. Besides, the Ratio in data set [5] is 2.4 10^-3/min/µM.
